Counter-ions that a name gives are not always drawn.

Usually IC50 stands for the concentration needed to halve the response being measured.

The experiment concerns the target T1, human NCX1 (Homo sapiens, UniProt P32418).
T1 construct: expressed in transfected cells
Nature of the experiment: NCX1 inhibition, reverse mode (Ca2+ influx into cells), FLIPR Fluo-4 assay. The following applies: inhibition of NCX1 in reverse mode (Ca2+ influx into cells); read-out: NCX1rv IC50. Type of experiment: cell-based. The text has this:
The sodium/calcium exchanger NCX1 can transport calcium ions and sodium ions through the cell membrane. The transport is an exchange of Ca^2+ and Na^+ in two directions depending on membrane potential and ion gradients. At the first direction, named “forward mode” or “calcium export mode”, Ca^2+ is transported out of the cell and Na^+ is transported into the cell. At the other direction, named “reverse mode” or “calcium import mode”, the transport directions are vice versa. The effect of the compounds of the invention on NCX1 was determined in CHO cells stably expressing human NCX1 (gene symbol SLC8A1; cf. WO 2009/115238). The assay is based on the monitoring of intracellular Ca^2+ concentrations using a calcium-sensitive fluorescence dye which is detected by means of a FLIPR device (Fluorimetric Imaging Plate Reader, Molecular Devices).
The assay is based on the monitoring of intracellular Ca^2+ concentrations using the calcium-sensitive dye Fluo-4. CHO cells expressing NCX1 were loaded with the dye by means of the acetoxymethyl ester Fluo-4 AM (Invitrogen, F14202), which is cleaved intracellularly by esterase activity to yield the charged species of free Fluo-4. After an preincubation period with the test compound, Gramicidine (Sigma, G5002) was added. Gramicidine is an ionophor for Na^+ ions mediating an increase of intracellular Na^+ ions. Consequently, intracellular Na^+ ions are exchanged against extracellular Ca^2+ ions (Ca^2+ influx, reverse mode). The intracellular elevation of Ca^2+ ions was detected by measuring the fluorescence of Fluo-4 at a wavelength of 520 nm by a FLIPR device.
Briefly, for the reverse mode transport assay 18000 cells per well were seeded into a 96 well microplate (Corning COSTAR 3904) and incubated overnight in culture medium (1× Nut Mix F12 (Ham) (Gibco, 21765-029); 10% (v/v) fetal calf serum (PAA Gold, A15-649); 450 μg/ml Geneticin (Gibco, 10131-027)). A total volume of 100 μl medium per well was used. For the preparation of the FLIPR assay, the culture medium was removed from the plates and 100 μl of dye solution (2 μM Fluo-4 AM; 0.02% (v/v) Pluronic F-127 (20%, Invitrogen, P3000MP); 0.1% (v/v) bovine albumin solution (30% (v/v), Sigma, A9205) in assay buffer (133.8 mM NaCl (Sigma, S5886); 4.7 mM KCl (Sigma, P3911); 1.25 mM MgCl2 (Merck, 1.05833.0250); 3.5 mM CaCl2 (Merck, 1.02083.0250); 5 mM glucose (Sigma, G7021); 10 mM Hepes (Sigma, H4034); 0.01% (v/v) Pluronic F-127 (5%, Sigma, P2443); 2.5 mM Probenecid (Maybridge, SB00915EB); pH 7.4)) were added into each well. The plates were incubated in the dark at room temperature for 80 min. After the incubation period, the dye solution was removed and the wells were washed with 100 μl of assay buffer. Then 80 μl of a solution of the test compound in assay buffer in different concentrations were added into the wells. The plates were incubated at 16° C. for 45 min. Meanwhile a 60 μM solution of Gramicidine in assay buffer (4° C.) was prepared and stored in the wells of a 96 well microplate (96 well microplate, polypropylene, U-shape (Greiner Bio-One, 650201)) at 4° C. until measurement was started. The fluorescence monitoring was performed at 240 measuring points with measurement intervals of 2 sec. After the fifth measuring point, 40 μl of the Gramicidine solution were added to each well of the assay plates to give a final Gramicidine concentration of 20 μM. For the determination of the IC50 values the minimal fluorescence value was subtracted from the maximal fluorescence value for all measuring points. The calculation of the IC50 values via the percentage inhibitions of Ca^2+ influx into cells (reverse mode) effected by the test compound was performed in Biost@t Speed 2.0.
On to “2-((S)-2-Phenyl-chroman-6-yloxy)-thiazole-5-carboxylic acid (3-amino-propyl)-amide [compound 289]”, for which the IC50 is 300 nM.
As for “2-[2-(2,6-Dimethyl-phenyl)-chroman-6-yloxy]-thiazole-5-carboxylic acid [2-(2-oxo-imidazolidin-1-yl)-ethyl]-amide [compound 347]”, the IC50 amounted to 1500 nM.
Next, `CCn1cc(CNC(=O)c2cnc(Oc3ccc4c(c3)CCC(c3ccccc3)O4)s2)cn1` (stereo not shown) [compound 1]: 300 nM; `CCn1nccc1CNC(=O)c1cnc(Oc2ccc3c(c2)CCC(c2ccccc2)O3)s1` (stereo not shown) [compound 3]: 400 nM; `O=C(NCc1ccncc1)c1cnc(Oc2ccc3c(c2)CCC(c2ccccc2)O3)s1` (stereo not shown) [compound 4]: 300 nM.
Then `Cn1nccc1CNC(=O)c1cnc(Oc2ccc3c(c2)CCC(c2ccccc2)O3)s1` (stereo not shown) [compound 5], with 400 nM.
Then `CC(NC(=O)c1cnc(Oc2ccc3c(c2)CCC(c2ccccc2)O3)s1)c1ccncc1` (stereo not shown) [compound 6], with 400 nM; and `Cc1ncsc1CCNC(=O)c1cnc(Oc2ccc3c(c2)CCC(c2ccccc2)O3)s1` (stereo not shown) [compound 7], with 300 nM.
With `Cc1c(C(C)NC(=O)c2cnc(Oc3ccc4c(c3)CCC(c3ccccc3)O4)s2)cnn1C` (stereo not shown) [compound 8], the IC50 came out at 800 nM.
Then `Cc1cc(CNC(=O)c2cnc(Oc3ccc4c(c3)CCC(c3ccccc3)O4)s2)ccn1` (stereo not shown) [compound 9], with 800 nM; and `COc1cc(CNC(=O)c2cnc(Oc3ccc4c(c3)CCC(c3ccccc3)O4)s2)ccn1` (stereo not shown) [compound 10], with 600 nM.
Turning to `Nc1cc(CNC(=O)c2cnc(Oc3ccc4c(c3)CCC(c3ccccc3)O4)s2)ccn1` (stereo not shown) [compound 11], the IC50 turned out to be 400 nM.
Next, `Nc1cc(CNC(=O)c2cnc(Oc3ccc4c(c3)CCC(c3cccc(F)c3)O4)s2)ccn1` (stereo not shown) [compound 12]: 200 nM; `O=C(NCc1cnc(Oc2ccc3c(c2)CCC(c2ccccc2)O3)s1)c1cccnc1` (stereo not shown) [compound 15, hydrochloride]: 100 nM.
Regarding `O=C(Cc1cccnc1)NCc1cnc(Oc2ccc3c(c2)CCC(c2ccccc2)O3)s1` (stereo not shown) [compound 16, hydrochloride], the IC50 is 100 nM.
Next, `O=C(NCc1nnc2ccccn12)c1cnc(Oc2ccc3c(c2)CCC(c2cccc(F)c2)O3)s1` (stereo not shown) [compound 17, hydrochloride]: 200 nM.
With `O=C(Cc1ccccn1)NCc1cnc(Oc2ccc3c(c2)CCC(c2ccccc2)O3)s1` (stereo not shown) [compound 19, hydrochloride], the IC50 was determined as 100 nM.
Then `Cc1nccc(CNC(=O)c2cnc(Oc3ccc4c(c3)CCC(c3ccccc3)O4)s2)n1` (stereo not shown) [compound 21], with 100 nM.
For `CC[C@H](NC(=O)c1cnc(Oc2ccc3c(c2)CCC(c2ccccc2)O3)s1)c1ccc(OC)nc1` (stereo partly shown) [compound 22], the IC50 came out at 400 nM.
Next, `Cc1nn(C)cc1C(C)NC(=O)c1cnc(Oc2ccc3c(c2)CCC(c2ccccc2)O3)s1` (stereo not shown) [compound 23]: 800 nM; `O=C(NCc1ccno1)c1cnc(Oc2ccc3c(c2)CCC(c2ccccc2)O3)s1` (stereo not shown) [compound 24]: 100 nM; `O=C(NCc1ccnc(N2CCCC2)c1)c1cnc(Oc2ccc3c(c2)CCC(c2ccccc2)O3)s1` (stereo not shown) [compound 25]: 400 nM.
In the case of `CN(Cc1ccnc(N2CCCC2)c1)C(=O)c1cnc(Oc2ccc3c(c2)CCC(c2ccccc2)O3)s1` (stereo not shown) [compound 26], the IC50 came to 300 nM.
Consider `CC[C@@H](NC(=O)c1cnc(Oc2ccc3c(c2)CCC(c2ccccc2)O3)s1)c1ccc(OC)nc1` (stereo partly shown) [compound 27], for which the IC50 amounted to 300 nM.
Next, `O=C(NCc1ccnc(N2CCOCC2)c1)c1cnc(Oc2ccc3c(c2)CCC(c2ccccc2)O3)s1` (stereo not shown) [compound 28]: 200 nM; `CN(C)c1cc(CNC(=O)c2cnc(Oc3ccc4c(c3)CCC(c3ccccc3)O4)s2)ccn1` (stereo not shown) [compound 29]: 100 nM; `O=C(NCc1ccncc1)c1sc(Oc2ccc3c(c2)CCC(c2ccccc2)O3)nc1C(F)(F)F` (stereo not shown) [compound 30, hydrochloride]: 300 nM.
For `Cc1n[nH]c(C)c1C(C)NC(=O)c1cnc(Oc2ccc3c(c2)CCC(c2ccccc2)O3)s1` (stereo not shown) [compound 31], the IC50 is 1000 nM.
Take `Cc1cc(C)nc(CNC(=O)c2cnc(Oc3ccc4c(c3)CCC(c3ccccc3)O4)s2)n1` (stereo not shown) [compound 33]: the IC50 amounted to 200 nM.
Then `Cc1noc(C)c1CCNC(=O)c1cnc(Oc2ccc3c(c2)CCC(c2ccccc2)O3)s1` (stereo not shown) [compound 34], with 200 nM.
Next, `O=C(NCc1nnc2ccccn12)c1cnc(Oc2ccc3c(c2)CCC(c2ccccc2)O3)s1` (stereo not shown) [compound 35]: 600 nM; `O=C(NCc1ccncc1)c1cnc(Oc2ccc3c(c2)CC[C@@H](c2ccccc2)O3)s1` [compound 36]: 100 nM; `O=C(NCc1ccncc1)c1cnc(Oc2ccc3c(c2)CC[C@H](c2ccccc2)O3)s1` [compound 37]: 200 nM.
Next, `Cc1noc(C)c1CCCNC(=O)c1cnc(Oc2ccc3c(c2)CCC(c2ccccc2)O3)s1` (stereo not shown) [compound 38]: 300 nM; `O=C(NCc1ccncc1Cl)c1cnc(Oc2ccc3c(c2)CCC(c2ccccc2)O3)s1` (stereo not shown) [compound 40]: 400 nM; `O=C(NCc1cn2ccccc2n1)c1cnc(Oc2ccc3c(c2)CCC(c2ccccc2)O3)s1` (stereo not shown) [compound 41]: 5000 nM.
Turning to `O=C(NCc1ccnc(O)c1)c1cnc(Oc2ccc3c(c2)CCC(c2ccccc2)O3)s1` (stereo not shown) [compound 42], the IC50 was determined as 200 nM.
As to `O=C(Cc1ccncc1)NCc1cnc(Oc2ccc3c(c2)CCC(c2ccccc2)O3)s1` (stereo not shown) [compound 43, hydrochloride], the IC50 was 300 nM.
Then `O=C(NCc1cnc(Oc2ccc3c(c2)CCC(c2cccc(F)c2)O3)s1)c1cccnc1` (stereo not shown) [compound 44, hydrochloride], with 200 nM; and `O=C(Cc1cccnc1)NCc1cnc(Oc2ccc3c(c2)CCC(c2cccc(F)c2)O3)s1` (stereo not shown) [compound 45, hydrochloride], with 100 nM.
Next, `O=C(Cc1ccncc1)NCc1cnc(Oc2ccc3c(c2)CCC(c2cccc(F)c2)O3)s1` (stereo not shown) [compound 46, hydrochloride]: 200 nM; `O=S(=O)(NCc1cnc(Oc2ccc3c(c2)CCC(c2ccccc2)O3)s1)c1cccnc1` (stereo not shown) [compound 47, hydrochloride]: 100 nM; `O=C(NCc1cnc(Oc2ccc3c(c2)CCC(c2ccccc2)O3)s1)c1ccno1` (stereo not shown) [compound 48]: 100 nM.
Next, `O=C(NCc1ccno1)c1cnc(Oc2ccc3c(c2)CCC(c2cccc(F)c2)O3)s1` (stereo not shown) [compound 49]: 100 nM.
In the case of `Cn1cnc(S(=O)(=O)NCc2cnc(Oc3ccc4c(c3)CCC(c3ccccc3)O4)s2)c1` (stereo not shown) [compound 50, 1-Methyl-1H-imidazole-4-sulfonic acid [2-(2-phenyl-chroman-6-yloxy)-thiazol-5-ylmethyl]-amide hydrochloride], the IC50 turned out to be 200 nM.
Regarding `Cc1c(CNC(=O)c2cnc(Oc3ccc4c(c3)CCC(c3cccc(F)c3)O4)s2)cnn1C` (stereo not shown) [compound 51], the IC50 was found to be 200 nM.
Next, `C[C@H](NC(=O)c1cnc(Oc2ccc3c(c2)CCC(c2ccccc2)O3)s1)c1nc(C2CC2)cs1` (stereo partly shown) [compound 52]: 400 nM.
Next, `CC(C)c1csc([C@H](C)NC(=O)c2cnc(Oc3ccc4c(c3)CCC(c3ccccc3)O4)s2)n1` (stereo partly shown) [compound 53]: 700 nM.
Then `C[C@H](NC(=O)c1cnc(Oc2ccc3c(c2)CCC(c2ccccc2)O3)s1)c1nccs1` (stereo partly shown) [compound 54], with 200 nM.
